Test results taken from patent publication US6541501B2, “2-(aminomethyl)-tetrahydro-9-oxa-1,3-diaza-cyclopenta[a]-naphthalenyl derivatives with antipsychotic activity” (Wyeth, priority 2001, dated 2003).
Counter-ions that a name gives are not always drawn.

Key:
dopamine D2 receptor = assay: Affinity for the dopamine D2 receptor, [3H]-spiperidone binding in homogenized limbic brain tissue; details: ratio of IC50 D2 Spiper to IC50 D2 Quin. (LowAg/HighAg)
Method: High affinity for the dopamine D2 receptor was established by the standard experimental test procedure of Fields, et al., Brain Res., 136, […] (1977) and Yamamura et al., ed., Neurotransmitter Receptor Binding, Chapter 9, page 171, Raven Press, N.Y. (1978) wherein homogenized limbic brain tissue is incubated with [^3H]-spiperidone at various concentrations of test compound, filtered washed, and shaken with Hydrofluor scintillation cocktail (National Diagnostics) and counted in a Packard 460 CD scintillation counter.

[1] = target: T1, dopamine autoreceptor (D2 Quin.) (Rattus norvegicus, UniProt P61169); assay: Affinity for the dopamine autoreceptor, [3H]-quinpirole binding in homogenized rat striatal brain tissue
T1 construct: from tissue; host or cells: rat striatal brain tissue homogenate
T1 sequence (P61169 whole entry): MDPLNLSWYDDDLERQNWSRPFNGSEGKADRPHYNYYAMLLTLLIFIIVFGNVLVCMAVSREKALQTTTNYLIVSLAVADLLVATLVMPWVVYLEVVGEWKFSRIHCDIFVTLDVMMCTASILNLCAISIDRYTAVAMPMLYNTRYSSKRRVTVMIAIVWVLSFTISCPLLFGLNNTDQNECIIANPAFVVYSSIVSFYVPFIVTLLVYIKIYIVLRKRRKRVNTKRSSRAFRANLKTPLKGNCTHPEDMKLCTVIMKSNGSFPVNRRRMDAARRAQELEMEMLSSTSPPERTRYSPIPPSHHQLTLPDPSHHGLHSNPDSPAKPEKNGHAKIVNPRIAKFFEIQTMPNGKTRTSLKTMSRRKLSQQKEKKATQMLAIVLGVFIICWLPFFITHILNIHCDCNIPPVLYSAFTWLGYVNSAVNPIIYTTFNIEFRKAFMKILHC
Method: Affinity for the dopamine autoreceptor was established by a modification of the standard experimental test procedure of Seemen and Schaus, European Journal of Pharmacology 203: 105-109, 1991, wherein homogenized rat striatal brain tissue is incubated with [^3H]-quinpirole (Quin.) at various concentrations of test compound, filtered, washed and counted in a Betaplate scintillation counter.

Structure (SMILES) | melting point [°C] | Ratio (dopamine D2 receptor) | IC50 [1] [nM]
O=c1[nH]c2c([nH]1)=C1OC(CNCc3ccccc3)CC=C1CC=2 (stereo not drawn) (as salt: oxalate) [Example 1, 8-(Benzylamino-methyl)-3,5,7,8-tetrahydro-9-oxa-1,3-diaza-cyclopenta[a]naphthalen-2-one] | 229 | – | –
O=c1[nH]c2ccc3c(c2[nH]1)OC(CNCc1ccccc1)CC3 (stereo not drawn) [Example 1, 8-(Benzylamino-methyl)-3,5,7,8-tetrahydro-9-oxa-1,3-diaza-cyclopenta[a]naphthalen-2-one] | – | 309 | 0.29
